The values below come from US20250199004A1, “METHODS OF EVALUATING TREATMENT OUTCOME IN HIGH GRADE SEROUS OVARIAN CANCER” (THE REGENTS OF THE UNIVERSITY OF COLORADO, A BODY CORPORATE, priority 2018, published 2025).

Like-named read-outs stand apart in the source and are kept apart here.

The test system of assay [1] is OVCAR4 cells. The assay is described as follows: Annexin V/PI apoptosis assay. Format: cell-based, human. The note with it: OVCAR4 adherent, loss of CBX2 (shCBX2 #1 or #2) vs shControl, cisplatin 10 μM. The procedure:
(§1) Panels of FIG. 6 are as follows. Panel A: OVCAR4 shControl, shCBX2 #1, and shCBX2 #2 in 96-well plates treated over 24 h with increasing dose of cisplatin (0.5-100 μM). Percent cell viability was measured using the MTT assay and the half maximal inhibitory concentration (IC50) calculated. Panel B: Similarly to (Panel A), OVCAR4 knockdown cell lines were grown in low adherent 96-well plates (forced suspension) and treated with increasing doses of cisplatin over 24 h and percent cell viability measured with MTT for calculation of IC50. Panel C: Annexin/V apoptosis assay of OVCAR4 cells grown in adherent setting with shControl, shCBX2 #1 or #2 treated with cisplatin (10 μM) compared to untreated control. Percent Annexin positive cells are shown. Statistical test=ANOVA. Error bars=S.E.M.
Following 72 h of growth in adherent and suspended states, OVCAR4 and PEO1 cells were harvested and washed in PBS. Alexa Fluor™ 488 Conjugated AnnexinV and Propidium Iodide (PI) (Thermo Fisher Scientific) staining were performed following manufacturer's protocol.

The test system of a further assay is OVCAR8 cells. In words: Cisplatin dose-response, cell viability by MTT assay. Format: cell-based, human. The note with it: 24 hours. As for the experimental part: A majority of HGSOC patients treated with platinum-based (i.e., carboplatin) chemotherapy develop chemoresistance. […] To test this hypothesis, CBX2 knockdown OVCAR4, PEO1, and OVCAR8 cells were grown in an adherent setting for 24 h and subsequently treated with increasing doses of cisplatin. […] The panels in FIG. 7A and FIG. 7B are as follows. Panel A: shControl (shCtrl), shCBX2 #1 and #2 OVCAR8 cells grown in adherent were dosed with cisplatin for 24 hours. Treated cells were utilized for a MTT assay to assess cell viability. Panel B: Same as A, but adherent PEO1 cells were dosed with cisplatin for 48 hours. Panel C: Same as A, but OVCAR8 cells in suspension were dosed with cisplatin for 24 hours. Panel D: Same as A, but PEO1 cells in suspension were dosed with cisplatin for 48 hours. IC50 values were calculated with Prism and are indicated.
A general note: Tetrazolium dyes change colour on reduction, which living cells bring about.

Assay [2] deals with OVCAR4 cells. The note with it: cells allowed to recover 72 h following cisplatin treatment; read-out: OVCAR4 cisplatin IC50 reported by Haley et al.; cited from earlier work.
The test system of a further assay is PEO1 cells. The assay is described as follows: Cisplatin dose-response, cell viability by MTT assay. Format: cell-based, human. The note with it: 48 hours. As for the experimental part:
(§2) A majority of HGSOC patients treated with platinum-based (i.e., carboplatin) chemotherapy develop chemoresistance. […] To test this hypothesis, CBX2 knockdown OVCAR4, PEO1, and OVCAR8 cells were grown in an adherent setting for 24 h and subsequently treated with increasing doses of cisplatin.
The panels in FIG. 7A and FIG. 7B are as follows. Panel A: shControl (shCtrl), shCBX2 #1 and #2 OVCAR8 cells grown in adherent were dosed with cisplatin for 24 hours. Treated cells were utilized for a MTT assay to assess cell viability. Panel B: Same as A, but adherent PEO1 cells were dosed with cisplatin for 48 hours. Panel C: Same as A, but OVCAR8 cells in suspension were dosed with cisplatin for 24 hours. Panel D: Same as A, but PEO1 cells in suspension were dosed with cisplatin for 48 hours. IC50 values were calculated with Prism and are indicated.
PEO1 and OVCAR4 cells were plated in 96-well plates in both adherent (4000 cells per well) and suspension (6000 cells per well) environments, as described above. These cells were treated over 24 h with increasing concentrations of Cisplatin (0.5-100 μM). 1640 RPMI media and media with 0.9% NaCl were used for control and vehicle control, respectively. Cell viability was assessed using the 3-(4,5-dimethylthiazol-2-yl)-5-(3-carboxymethoxyphenyl)-2-(4-sulfophenyl)-2H-tetrazolium (MTT) assay (Promega, Madison, WI). […]

Assay [3] has as its system OVCAR4 cells. The assay is described as above. Format: cell-based, human. The note with it: for IC50: 24 h, MTT. The procedure:
as §2
CBX2 knockdown OVCAR4, PEO1, and OVCAR8 cells were grown in suspension and dosed with cisplatin. […] Although not as robust as OVCAR4 cells, CBX2knockdown also sensitized OVCAR8 and PEO1 cells to cisplatin (FIG. 7B Panels C-D). […] In addition, we further confirmed that in OVCAR4, loss of CBX2 lead to increased cisplatin-induced apoptosis measured with Annexin V/PI (FIG. 6 Panel C).
as §1
PEO1 and OVCAR4 cells were plated in 96-well plates in both adherent (4000 cells per well) and suspension (6000 cells per well) environments, as described above. These cells were treated over 24 h with increasing concentrations of Cisplatin (0.5-100 μM). 1640 RPMI media and media with 0.9% NaCl were used for control and vehicle control, respectively. Cell viability was assessed using the 3-(4,5-dimethylthiazol-2-yl)-5-(3-carboxymethoxyphenyl)-2-(4-sulfophenyl)-2H-tetrazolium (MTT) assay (Promega, Madison, WI). Means of at least five wells are reported and experiments were independently repeated in triplicate. Representative dose-response curves are shown.

As usually defined, the IC50 is the concentration needed to halve the response being measured. `N.N.[Cl][Pt][Cl]` [cisplatin]: the “cisplatin-induced apoptosis measured with Annexin V/PI” value in the assay with OVCAR4 cells [1] is “increased”. Moreover, the “chemosensitivity to cisplatin, shCBX2 cell lines vs shControl cells” value was “significantly more chemosensitive” in the assay with OVCAR8 cells (OVCAR8, adherent); “significantly more chemosensitive” in the assay on PEO1 cells (PEO1, adherent); “significantly more chemosensitive” in the assay with OVCAR4 cells [3] (OVCAR4, adherent). In addition, the “sensitivity to cisplatin after CBX2 knockdown” value is recorded as “sensitized” with OVCAR8 cells (OVCAR8, suspension) and “sensitized” in the assay with PEO1 cells (PEO1, suspension). For the same compound, the IC50 with OVCAR4 cells [2] is around 6 µM; in the assay with OVCAR4 cells [3] (OVCAR4 control with intact CBX2, adherent), 38.7 µM; in the assay with OVCAR4 cells [3] (OVCAR4 control with intact CBX2, suspension) it was 170 µM; in the assay with OVCAR4 cells [3] (OVCAR4 shCBX2 #1 knockdown cells, adherent), 12.7 µM; in the assay with OVCAR4 cells [3] (OVCAR4 shCBX2 #1 knockdown cells, suspension), 7.19 µM; in the assay with OVCAR4 cells [3] (OVCAR4 shCBX2 #2 knockdown cells, adherent), 15.4 µM. This compound also yielded an IC50 in the assay on OVCAR4 cells [3] (OVCAR4 shCBX2 #2 knockdown cells, suspension) of 18.1 µM. In addition, the “increase in the cisplatin IC50 in suspension cells compared to the adherent cells” value in the assay on OVCAR4 cells [3] (OVCAR4 cells) turned out to be 4.47 fold.
